Results as given in ChEMBL document CHEMBL1145685, “In vitro and in vivo antiplasmodial activity of cryptolepine and related alkaloids from Cryptolepis sanguinolenta” (J Nat Prod, 1997).
Values after ≈ are worked out from the molar mass of the structure shown.

Columns and labels:
Plasmodium falciparum [1] = assay: Antiplasmodial activity against chloroquine-resistant Plasmodium falciparum W2 infected human erythrocytes by [3H]hypoxanthine uptake; type: functional, organism-based
Plasmodium falciparum [2] = assay: Antiplasmodial activity against Plasmodium falciparum K1 infected human erythrocytes by [3H]hypoxanthine uptake; type: functional, organism-based
Plasmodium falciparum [3] = assay: Antiplasmodial activity against chloroquine-sensitive Plasmodium falciparum D6 infected human erythrocytes by [3H]hypoxanthine uptake; type: functional, organism-based
Plasmodium berghei [4] = assay: Antimalarial activity as reduced parasitaemia against Plasmodium berghei infected Swiss albino mice (Mus musculus) at 50 mg/kg/day peroral dose for 4 days; type: functional; set-up: scale not given: the % may be the effect or the level left; details: route oral
Plasmodium yoelii [5] = assay: Antimalarial activity as reduced parasitaemia against Plasmodium berghei yoelii infected Swiss albino mice (Mus musculus) at 50 mg/kg/day peroral dose for 4 days; type: functional; set-up: scale not given: the % may be the effect or the level left; details: route oral
Plasmodium berghei [6] = assay: Antimalarial activity as reduced parasitaemia against Plasmodium berghei infected Swiss albino mice (Mus musculus) at 5 mg/kg/day peroral dose for 4 days; type: functional; set-up: scale not given: the % may be the effect or the level left; details: route oral
Plasmodium yoelii [7] = assay: Antimalarial activity as reduced parasitaemia against Plasmodium berghei yoelii infected Swiss albino mice (Mus musculus) at 5 mg/kg/day peroral dose for 4 days; type: functional; set-up: scale not given: the % may be the effect or the level left; details: route oral

| SMILES | IC50 (Plasmodium falciparum [1]) | IC50 (Plasmodium falciparum [2]) | IC50 (Plasmodium falciparum [3]) | Activity (Plasmodium berghei [4]) | Activity (Plasmodium yoelii [5]) | Activity (Plasmodium berghei [6]) | Activity (Plasmodium yoelii [7]) |
| --- | --- | --- | --- | --- | --- | --- | --- |
| C[C@@H]1CC[C@H]2[C@@H](C)C(=O)O[C@@H]3O[C@@]4(C)CC[C@@H]1[C@]32OO4 [ARTEMISININ] | 0.0027 µg/mL (≈ 0.00956 µM) | 0.0033 µg/mL (≈ 0.0117 µM) | 0.0025 µg/mL (≈ 0.00885 µM) | – | – | – | – |
| c1ccc2nc3c(cc2c1)[nH]c1ccccc13 [QUINDOLINE] | 0.108 µg/mL (≈ 0.495 µM) | 0.087 µg/mL (≈ 0.399 µM) | 0.063 µg/mL (≈ 0.289 µM) | 48.2% | 42.1% | – | – |
| C[n+]1c2ccccc2cc2[n-]c3ccccc3c21 [CRYPTOLEPINE] | 0.041 µg/mL (≈ 0.177 µM) | 0.033 µg/mL (≈ 0.142 µM) | 0.027 µg/mL (≈ 0.116 µM) | 45.4% | 13.7% | – | – |
| C=C[C@H]1CN2CC[C@H]1C[C@H]2[C@H](O)c1ccnc2ccc(OC)cc12 [QUININE] | – | 0.0352 µg/mL (≈ 0.108 µM) | 0.0176 µg/mL (≈ 0.0542 µM) | – | – | – | – |
| OC(c1cc(C(F)(F)F)nc2c(C(F)(F)F)cccc12)C1CCCCN1 (stereo unspecified) [MEFLOQUINE] | 0.0051 µg/mL (≈ 0.0135 µM) | – | 0.0063 µg/mL (≈ 0.0167 µM) | – | – | – | – |
| Cn1c2nc3ccccc3c-2cc2ccccc21 [NEOCRYPTOLEPINE] | 0.065 µg/mL (≈ 0.28 µM) | 0.051 µg/mL (≈ 0.22 µM) | 0.035 µg/mL (≈ 0.151 µM) | – | – | – | – |
| Cn1c2c3ccccc3nc-2c(O)c2ccccc21 [HYDROXYCRYPTOLEPINE] | 0.059 µg/mL (≈ 0.238 µM) | 0.045 µg/mL (≈ 0.181 µM) | 0.031 µg/mL (≈ 0.125 µM) | 43.2% | – | – | – |
| C[n+]1c2ccccc2cc2[n-]c3ccccc3c21.Cl [CRYPTOLEPINE HYDROCHLORIDE] | 0.052 µg/mL | 0.062 µg/mL | 0.041 µg/mL | 15.6% | 10.8% | – | – |
| CCN(CC)CCCC(C)Nc1ccnc2cc(Cl)ccc12 (stereo unspecified) [CHLOROQUINE] | – | – | – | – | – | 2.2% | 1.65% |
